Measurements: patent publication EP4631938A1, “NITROGEN-CONTAINING HETEROCYCLE WITH SEROTONIN RECEPTOR-BINDING ACTIVITY AND CARBOCYCLIC DERIVATIVE” (Shionogi & Co., Ltd, priority 2022, dated 2024)
pIC50, pKi: −log10 of the molar value.

Tests used:
[1] = molecular target: T1, human ether-a-go-go related gene (hERG) channel (Homo sapiens, UniProt Q12809); assay: Test Example 3-2: hERG test (FluxORII thallium flux, FLIPR, 4000 cells/well); format: cell-based; settings: CHO cells expressing hERG channel, compound reacted for 10 minutes, 100% inhibition = E-4031 10.3 µmol/L
T1 construct: expressed in transfected cells; host or cells: CHO cells
Procedure: For the purpose of evaluating risk of an electrocardiogram QT interval prolongation of the compound of the present invention, effects of the compound are studied by evaluating the activity of potassium channel using CHO cells expressing human ether-a-go-go related gene (hERG) channel.
Evaluation is performed using a FluxORII Green Potassium Ion Channel Assay kit (Invitrogen: Molecular Probes).
Cells (4000 cells/well/40 µL) are seeded in a 384 assay plate, and are incubated overnight (37°C, 5% CO2). After replacing the medium with a Wash buffer (lxHBSS, 20 mM HEPES) with a microplate washer, a fluorescent indicator is added to the medium and allowed to incubate (37°C, 5% CO2) for 1 hour for incorporation of the fluorescent indicator into cells.
A cell plate is placed on a cell-based kinetic assay system FLIPR (Molecular Devices, LLC.), and the compound is added to the cells so as to have a desired concentration and reacted for 10 minutes. When a mixed solution of potassium and thallium as a stimulator is added thereto, the potassium channel is opened, and thallium that flowed into the cells binds to the fluorescent indicator, so that the intracellular fluorescence signal increases, and the potassium channel current is detected as a fluorescence signal. […] Then, the inhibition rate is calculated from the signal intensity at each concentration. IC50 is calculated from the inhibition rate at each concentration.

[2] = molecular target: T2, human recombinant 5-HT2C receptor (Homo sapiens, UniProt P28335); assay: Test Example 2-2: 5-HT2C receptor binding inhibition test ([3H]-Mesulergine; non-specific ligand Ketanserin); settings: non-specific binding with 500 µmol/L Ketanserin, 37°C, 2 hours
T2 construct: expressed in transfected cells; host or cells: Jump-In HEK cells (membrane preparation)
T2 sequence (P28335 33-458): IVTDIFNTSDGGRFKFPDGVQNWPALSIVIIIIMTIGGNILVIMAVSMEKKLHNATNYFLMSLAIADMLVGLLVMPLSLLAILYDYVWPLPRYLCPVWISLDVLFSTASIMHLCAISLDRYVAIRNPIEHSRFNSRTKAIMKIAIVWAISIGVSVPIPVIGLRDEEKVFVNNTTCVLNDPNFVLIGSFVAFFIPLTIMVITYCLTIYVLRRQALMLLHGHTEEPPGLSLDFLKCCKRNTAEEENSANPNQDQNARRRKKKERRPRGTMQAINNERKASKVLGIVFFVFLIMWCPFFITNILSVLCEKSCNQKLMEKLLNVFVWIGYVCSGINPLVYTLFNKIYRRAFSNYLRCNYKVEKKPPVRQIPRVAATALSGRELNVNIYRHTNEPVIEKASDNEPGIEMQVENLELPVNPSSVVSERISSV
Method in brief: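 Membranes expressing the receptor were incubated with compound and [3H]-Mesulergine for 2 h at 37 °C, then filtered and counted by scintillation. Non-specific binding was defined with 500 µmol/L Ketanserin. Percent inhibition versus vehicle gave dose-response curves, from which Ki was derived using a Kd from Scatchard saturation analysis.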

T1 sequence (Q12809 whole entry): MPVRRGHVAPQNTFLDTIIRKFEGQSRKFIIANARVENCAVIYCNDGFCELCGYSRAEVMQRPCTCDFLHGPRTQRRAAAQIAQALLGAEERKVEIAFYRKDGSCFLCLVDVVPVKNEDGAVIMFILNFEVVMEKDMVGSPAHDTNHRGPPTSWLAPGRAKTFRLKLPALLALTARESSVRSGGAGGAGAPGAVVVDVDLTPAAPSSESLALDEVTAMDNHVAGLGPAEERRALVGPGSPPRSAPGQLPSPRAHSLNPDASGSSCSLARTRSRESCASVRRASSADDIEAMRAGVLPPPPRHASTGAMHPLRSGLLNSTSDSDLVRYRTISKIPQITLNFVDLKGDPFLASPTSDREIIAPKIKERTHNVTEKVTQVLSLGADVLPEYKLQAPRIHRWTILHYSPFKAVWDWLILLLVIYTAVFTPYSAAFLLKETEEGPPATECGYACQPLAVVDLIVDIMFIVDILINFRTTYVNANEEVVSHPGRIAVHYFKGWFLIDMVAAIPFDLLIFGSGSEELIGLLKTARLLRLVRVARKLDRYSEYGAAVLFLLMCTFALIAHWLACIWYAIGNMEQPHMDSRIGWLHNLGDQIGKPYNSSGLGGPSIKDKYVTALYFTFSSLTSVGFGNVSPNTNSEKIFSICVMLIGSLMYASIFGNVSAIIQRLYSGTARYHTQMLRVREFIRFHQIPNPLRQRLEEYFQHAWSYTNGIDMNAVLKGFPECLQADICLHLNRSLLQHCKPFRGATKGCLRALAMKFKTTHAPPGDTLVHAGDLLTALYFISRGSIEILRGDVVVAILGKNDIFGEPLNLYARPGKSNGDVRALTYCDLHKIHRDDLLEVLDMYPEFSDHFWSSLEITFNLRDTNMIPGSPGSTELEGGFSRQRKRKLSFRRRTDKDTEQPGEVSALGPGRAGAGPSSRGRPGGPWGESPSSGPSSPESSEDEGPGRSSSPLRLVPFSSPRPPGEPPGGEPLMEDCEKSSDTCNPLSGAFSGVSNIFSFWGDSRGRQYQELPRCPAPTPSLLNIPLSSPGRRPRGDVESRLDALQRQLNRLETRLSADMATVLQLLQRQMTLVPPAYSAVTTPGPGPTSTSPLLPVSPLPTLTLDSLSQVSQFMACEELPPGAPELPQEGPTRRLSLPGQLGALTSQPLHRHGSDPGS

SMILES | pIC50 [1] | pKi [2]
Cn1ncc(Br)c1-c1cc(Nc2ncc(C(F)(F)F)cc2F)ccc1OCCO [Compound I-006] | < 4.28 | 9.57
Cc1cnn(C)c1-c1cc(Nc2ncc(C(F)(F)F)cc2F)ccc1OCCO [Compound I-008] | – | 9.09
Cn1ncc(F)c1-c1cc(Nc2ncc(C(F)(F)F)cc2F)cnc1OCCO [Compound I-127] | < 4.28 | 8.46
COCc1nc(C)c(-c2cc(Nc3ncc(OC(F)(F)F)cc3Cl)ncc2OCCO)c(C)n1 [Compound I-200] | < 4.28 | –
